Source: patent EP0908457B1, “3-(1,2-benzisothiazol- and isoxazol-5-Y1)-2,4(1H,3H)-pyrimidinedione or thione and 3-(1,2-benzisothiazol- and isoxazol-5-y1)-4(3H)-pyrimidinone or thione herbicidal agents” (BASF AKTIENGESELLSCHAFT, priority 1997, dated 1999)

How the values were obtained:
[1] = system: Sagittaria pygmaea, L.; experiment: Preemergence weed control under flooded paddy conditions, SAGPY (Arrowhead (Pygmaea)); format: in vivo; conditions: flooded paddy; for SAGPY: herbicidal effect rating 0-9, three to four weeks after treatment; as to herbicidal effect rating, SAGPY: meaning of each grade not given here
[2] = system: Oryza sativa, (L.) Tebonnet; experiment: Rice tolerance to post-transplant applications under flooded paddy conditions (Example 187), ORYSAT (Rice, Tebonnet); conditions: for ORYSAT herbicidal effect rating / herbicidal effect rating, ORYSAT (rice tolerance): rated three to four weeks after treatment; for herbicidal effect rating ORYSAT: rated 3-4 weeks after treatment; for ORYSAT: herbicidal effect rating 0-9, three to four weeks after treatment; as to herbicidal effect rating ORYSAT: meaning of each grade not given here
[3] = system: Cyperus iria; experiment: Preemergence weed control under flooded paddy conditions, CYPIR (Rice Flatsedge); format: in vivo; conditions: flooded paddy; for CYPIR: herbicidal effect rating 0-9, three to four weeks after treatment; as to herbicidal effect rating, CYPIR: meaning of each grade not given here
[4] = system: Monochoria vaginalis, Presl.; experiment: Preemergence weed control under flooded paddy conditions, MOOVA (Monochoria); format: in vivo; conditions: flooded paddy; for MOOVA: herbicidal effect rating 0-9, three to four weeks after treatment; as to herbicidal effect rating, MOOVA: meaning of each grade not given here
[5] = system: Cyperus serotinus, Rottb.; experiment: Preemergence weed control under flooded paddy conditions, CYPSE (Flatsedge); format: in vivo; conditions: for CYPSE: herbicidal effect rating 0-9, three to four weeks after treatment; as to herbicidal effect rating, CYPSE: meaning of each grade not given here
[6] = system: Echinochloa oryzoides (Ard.) Fritsch.; experiment: Preemergence weed control under flooded paddy conditions, ECHORC (Watergrass (Calif.)); format: in vivo; conditions: flooded paddy; for ECHORC: herbicidal effect rating 0-9, three to four weeks after treatment; as to herbicidal effect rating, ECHORC: meaning of each grade not given here
[7] = Rate 0.0320 kg/ha, preemergence, rated three to four weeks after treatment
[8] = Rate 0.0620 kg/ha, preemergence, rated three to four weeks after treatment
[9] = Rate 0.1250 kg/ha, preemergence, rated three to four weeks after treatment
[10] = Rate 0.2500 kg/ha, preemergence, rated three to four weeks after treatment
[11] = Rate 0.5000 kg/ha, preemergence, rated three to four weeks after treatment
[12] = Rate 0.0320 kg/ha, preemergence, rated 3-4 weeks after treatment
[13] = Rate 0.0620 kg/ha, preemergence, rated 3-4 weeks after treatment
[14] = Rate 0.1250 kg/ha, preemergence, rated 3-4 weeks after treatment
[15] = Rate 0.2500 kg/ha, preemergence, rated 3-4 weeks after treatment
[16] = Rate 0.5000 kg/ha, preemergence, rated 3-4 weeks after treatment
[17] = 0.0320 kg/ha, preemergence weeds
[18] = 0.0620 kg/ha, preemergence weeds
[19] = 0.1250 kg/ha, preemergence weeds
[20] = 0.2500 kg/ha, preemergence weeds
[21] = 0.0313 kg/ha, preemergence weeds, rated three to four weeks after treatment
[22] = 0.0625 kg/ha, preemergence weeds, rated three to four weeks after treatment
[23] = 0.1250 kg/ha, preemergence weeds, rated three to four weeks after treatment
[24] = 0.2500 kg/ha, preemergence weeds, rated three to four weeks after treatment

## Cn1c(C(F)(F)F)cc(=O)n(-c2ccc3snc(-c4ccc(OCC(=O)O)cc4)c3c2)c1=O [Example 281, Acetic acid, {p-{5-[3,6-dihydro-3-methyl-2,6-dioxo-4-(trifluoromethyl)-1(2H)-pyrimidinyl]-1,2-benzisothiazol-3-yl}phenoxy}-]
[1]; [7]
  SAGPY herbicidal effect rating: 0.0
[1]; [8]
  SAGPY herbicidal effect rating: 0.0
[1]; [9]
  SAGPY herbicidal effect rating: 2.0
[1]; [10]
  SAGPY herbicidal effect rating: 8.0
[1]; [11]
  SAGPY herbicidal effect rating: 9.0
[2]; Rate 0.0320 kg/ha
  ORYSAT herbicidal effect rating: 0.0
[2]; Rate 0.0620 kg/ha
  ORYSAT herbicidal effect rating: 2.0
[2]; Rate 0.1250 kg/ha
  ORYSAT herbicidal effect rating: 4.0
[2]; Rate 0.2500 kg/ha
  ORYSAT herbicidal effect rating: 6.0
[2]; Rate 0.5000 kg/ha
  ORYSAT herbicidal effect rating: 4.0
[3]; [7]
  CYPIR herbicidal effect rating: 4.0
[3]; [8]
  CYPIR herbicidal effect rating: 8.0
[3]; [9]
  CYPIR herbicidal effect rating: 9.0
[3]; [10]
  CYPIR herbicidal effect rating: 9.0
[3]; [11]
  CYPIR herbicidal effect rating: 9.0
[4]; [7]
  MOOVA herbicidal effect rating: 9.0
[4]; [8]
  MOOVA herbicidal effect rating: 9.0
[4]; [9]
  MOOVA herbicidal effect rating: 9.0
[4]; [10]
  MOOVA herbicidal effect rating: 9.0
[4]; [11]
  MOOVA herbicidal effect rating: 9.0
[5]; [7]
  CYPSE herbicidal effect rating: 9.0
[5]; [8]
  CYPSE herbicidal effect rating: 9.0
[5]; [9]
  CYPSE herbicidal effect rating: 9.0
[5]; [10]
  CYPSE herbicidal effect rating: 9.0
[5]; [11]
  CYPSE herbicidal effect rating: 9.0
[6]; [7]
  ECHORC herbicidal effect rating: 0.0
[6]; [8]
  ECHORC herbicidal effect rating: 5.9
[6]; [9]
  ECHORC herbicidal effect rating: 7.1
[6]; [10]
  ECHORC herbicidal effect rating: 9.0
[6]; [11]
  ECHORC herbicidal effect rating: 7.0

## Cn1c(C(F)(F)F)cc(=O)n(-c2ccc3snc(-c4ccccc4OCC(N)=O)c3c2)c1=O [Example 563, Acetamide, 2-{o-{5-[3,6-dihydro-3-methyl-2,6-dioxo-4-(trifluoromethyl)-1(2H)-pyrimidinyl]-1,2-benzisothiazol-3-yl}phenoxy}-]
[1]; [12]
  herbicidal effect rating, SAGPY: 0.0
[1]; [13]
  herbicidal effect rating, SAGPY: 0.0
[1]; [14]
  herbicidal effect rating, SAGPY: 0.0
[1]; [15]
  herbicidal effect rating, SAGPY: 2.0
[1]; [16]
  herbicidal effect rating, SAGPY: 4.0
[2]; Rate 0.0320 kg/ha
  herbicidal effect rating ORYSAT: 4.0
[2]; Rate 0.0620 kg/ha
  herbicidal effect rating ORYSAT: 7.0
[2]; Rate 0.1250 kg/ha
  herbicidal effect rating ORYSAT: 7.0
[2]; Rate 0.2500 kg/ha
  herbicidal effect rating ORYSAT: 7.0
[2]; Rate 0.5000 kg/ha
  herbicidal effect rating ORYSAT: 4.0
[3]; [12]
  herbicidal effect rating, CYPIR: 0.0
[3]; [13]
  herbicidal effect rating, CYPIR: 2.0
[3]; [14]
  herbicidal effect rating, CYPIR: 6.0
[3]; [15]
  herbicidal effect rating, CYPIR: 6.0
[3]; [16]
  herbicidal effect rating, CYPIR: 9.0
[4]; [12]
  herbicidal effect rating, MOOVA: 8.0
[4]; [13]
  herbicidal effect rating, MOOVA: 9.0
[4]; [14]
  herbicidal effect rating, MOOVA: 9.0
[4]; [15]
  herbicidal effect rating, MOOVA: 9.0
[4]; [16]
  herbicidal effect rating, MOOVA: 9.0
[5]; [12]
  herbicidal effect rating, CYPSE: 0.0
[5]; [13]
  herbicidal effect rating, CYPSE: 0.0
[5]; [14]
  herbicidal effect rating, CYPSE: 0.0
[5]; [15]
  herbicidal effect rating, CYPSE: 4.0
[5]; [16]
  herbicidal effect rating, CYPSE: 0.0
[6]; [12]
  herbicidal effect rating, ECHORC: 3.6
[6]; [13]
  herbicidal effect rating, ECHORC: 5.1
[6]; [14]
  herbicidal effect rating, ECHORC: 5.6
[6]; [15]
  herbicidal effect rating, ECHORC: 9.0
[6]; [16]
  herbicidal effect rating, ECHORC: 9.0

## Cn1c(C(F)(F)F)cc(=O)n(-c2ccc3snc(C(Br)C#N)c3c2)c1=O (stereo not drawn) [Example 264, 1,2-Benzisothiazole-3-acetonitrile, alpha-bromo-5-[3,6-dihydro-3-methyl-2,6-dioxo-4-(trifluoromethyl)-1(2H)-pyrimidinyl]-]
[1]; [7]
  SAGPY herbicidal effect rating: 0.0
[1]; [8]
  SAGPY herbicidal effect rating: 0.0
[1]; [9]
  SAGPY herbicidal effect rating: 0.0
[1]; [10]
  SAGPY herbicidal effect rating: 0.0
[2]; Rate 0.0320 kg/ha
  ORYSAT herbicidal effect rating: 0.0
[2]; Rate 0.0620 kg/ha
  ORYSAT herbicidal effect rating: 0.0
[2]; Rate 0.1250 kg/ha
  ORYSAT herbicidal effect rating: 0.0
[2]; Rate 0.2500 kg/ha
  ORYSAT herbicidal effect rating: 5.0
[3]; [7]
  CYPIR herbicidal effect rating: 5.0
[3]; [8]
  CYPIR herbicidal effect rating: 5.0
[3]; [9]
  CYPIR herbicidal effect rating: 5.0
[3]; [10]
  CYPIR herbicidal effect rating: 5.0
[4]; [7]
  MOOVA herbicidal effect rating: 9.0
[4]; [8]
  MOOVA herbicidal effect rating: 9.0
[4]; [9]
  MOOVA herbicidal effect rating: 9.0
[4]; [10]
  MOOVA herbicidal effect rating: 9.0
[5]; [7]
  CYPSE herbicidal effect rating: 4.0
[5]; [8]
  CYPSE herbicidal effect rating: 4.0
[5]; [9]
  CYPSE herbicidal effect rating: 9.0
[5]; [10]
  CYPSE herbicidal effect rating: 9.0
[6]; [7]
  ECHORC herbicidal effect rating: 0.0
[6]; [8]
  ECHORC herbicidal effect rating: 0.0
[6]; [9]
  ECHORC herbicidal effect rating: 0.0
[6]; [10]
  ECHORC herbicidal effect rating: 2.0

## Cc1ccc(OCC(=O)N(C)S(C)(=O)=O)c(-c2nsc3ccc(-n4c(=O)cc(C(F)(F)F)n(C)c4=O)cc23)c1 [Example 437, Acetamide, 2-{{2-{5-[3,6-dihydro-3-methyl-2,6-dioxo-4-(trifluoromethyl)-1(2H)-pyrimidinyl]-1,2-benzisothiazol-3-yl}-p-tolyl}oxy}-N-methyl-N-(methylsulfonyl)-]
[1]; [17]
  SAGPY: 0.0
[1]; [18]
  SAGPY: 3.0
[1]; [19]
  SAGPY: 4.0
[1]; [20]
  SAGPY: 7.0
[2]; 0.0320 kg/ha
  ORYSAT: 4.0
[2]; 0.0620 kg/ha
  ORYSAT: 5.0
[2]; 0.1250 kg/ha
  ORYSAT: 6.0
[2]; 0.2500 kg/ha
  ORYSAT: 7.0
[3]; [17]
  CYPIR: 0.0
[3]; [18]
  CYPIR: 0.0
[3]; [19]
  CYPIR: 4.0
[3]; [20]
  CYPIR: 6.0
[4]; [17]
  MOOVA: 9.0
[4]; [18]
  MOOVA: 9.0
[4]; [19]
  MOOVA: 9.0
[4]; [20]
  MOOVA: 9.0
[5]; [17]
  CYPSE: 0.0
[5]; [18]
  CYPSE: 2.0
[5]; [19]
  CYPSE: 3.0
[5]; [20]
  CYPSE: 7.0
[6]; [17]
  ECHORC: 5.0
[6]; [18]
  ECHORC: 7.0
[6]; [19]
  ECHORC: 7.0
[6]; [20]
  ECHORC: 8.0

## Cc1ccc(OCC(=O)NS(C)(=O)=O)c(-c2nsc3ccc(-n4c(=O)cc(C(F)(F)F)n(C)c4=O)cc23)c1 [Example 121, N-{{{2-{5-[3,6-Dihydro-3-methyl-2,6-dioxo-4-(trifluoromethyl)-1(2H)-pyrimidinyl]-1,2-benzisothiazol-3-yl}-p-tolyl}oxy}acetyl}methanesulfonamide]
[1]; [21]
  herbicidal effect rating, SAGPY: 0.0
[1]; [22]
  herbicidal effect rating, SAGPY: 0.0
[1]; [23]
  herbicidal effect rating, SAGPY: 0.0
[1]; [24]
  herbicidal effect rating, SAGPY: 0.0
[2]; 0.0313 kg/ha
  herbicidal effect rating, ORYSAT (rice tolerance): 3.0
[2]; 0.0625 kg/ha
  herbicidal effect rating, ORYSAT (rice tolerance): 4.0
[2]; 0.1250 kg/ha
  herbicidal effect rating, ORYSAT (rice tolerance): 6.0
[2]; 0.2500 kg/ha
  herbicidal effect rating, ORYSAT (rice tolerance): 9.0
[3]; [21]
  herbicidal effect rating, CYPIR: 0.0
[3]; [22]
  herbicidal effect rating, CYPIR: 0.0
[3]; [23]
  herbicidal effect rating, CYPIR: 2.0
[3]; [24]
  herbicidal effect rating, CYPIR: 4.0
[4]; [21]
  herbicidal effect rating, MOOVA: 9.0
[4]; [22]
  herbicidal effect rating, MOOVA: 9.0
[4]; [23]
  herbicidal effect rating, MOOVA: 9.0
[4]; [24]
  herbicidal effect rating, MOOVA: 9.0
[5]; [21]
  herbicidal effect rating, CYPSE: 0.0
[5]; [22]
  herbicidal effect rating, CYPSE: 0.0
[5]; [23]
  herbicidal effect rating, CYPSE: 2.0
[5]; [24]
  herbicidal effect rating, CYPSE: 4.0
[6]; [21]
  herbicidal effect rating, ECHORC: 6.0
[6]; [22]
  herbicidal effect rating, ECHORC: 7.0
[6]; [23]
  herbicidal effect rating, ECHORC: 8.0
[6]; [24]
  herbicidal effect rating, ECHORC: 9.0
